Among the test systems are M19-MEL melanoma; LXFL 529 NSCLC; XF 498 CNS; RXF-631 renal; HOP-18 NSCLC; DMS 114 small cell lung; DMS 273 small cell lung; SNB-78 CNS; BT-549 breast; MDA-MB-435; NCI/ADR-RES ovarian; PC-3 prostate; DU-145 prostate; HS 578T breast.
What all share (experiment): NCI tumour cell line growth inhibition, 48 h

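Method: 48-hour compound exposure of cells in 96-well plates, five concentrations, linear interpolation of endpoints. Definition used: TGI = concentration required for complete inhibition of growth.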

From PubChem BioAssay (NCI) come the findings set out here.

`COC(=O)c1nc(N)nc(C(=O)OC)c1C(=O)c1ccccc1`: the TGI in the test with M19-MEL melanoma, in the test on LXFL 529 NSCLC, in the test on XF 498 CNS, in the test with RXF-631 renal, in the test on HOP-18 NSCLC and with DMS 114 small cell lung was above 100 µM each time.
`Cc1cc(Cl)ccc1NC(=O)C(=O)Cc1occc(=O)c1O`: the TGI with M19-MEL melanoma, with LXFL 529 NSCLC, in the test with XF 498 CNS, in the test on DMS 273 small cell lung, with RXF-631 renal and in the test on SNB-78 CNS was above 100 µM each time. Besides, the TGI in the test on HOP-18 NSCLC and with DMS 114 small cell lung was above 100 µM throughout.
`CC1=C(C(=O)Nc2ccccc2C)C(c2ccccc2C)C(C(=O)Nc2ccccc2C)=C(C)N1`: the TGI in the test with M19-MEL melanoma is 66.7 µM; with LXFL 529 NSCLC, above 10 µM; with XF 498 CNS, 39.2 µM; with RXF-631 renal, above 100 µM; in the test with SNB-78 CNS, above 100 µM; in the test with HOP-18 NSCLC it was 37 µM. Moreover, in the test with DMS 114 small cell lung, the TGI is above 100 µM.
`COc1cc(/C=C\c2ccc(Cl)cc2)cc(OC)c1OC`: the TGI with M19-MEL melanoma is above 100 µM; in the test with LXFL 529 NSCLC, above 95.1 µM; with XF 498 CNS it was 19.1 µM; with DMS 273 small cell lung, 19.4 µM; in the test on RXF-631 renal it was above 100 µM; with HOP-18 NSCLC, above 100 µM. In the test with DMS 114 small cell lung, this molecule displayed a TGI above 91.8 µM.
For `Oc1ccc(Cn2c(-c3ccc(O)cc3)nc3ccccc32)cc1`, the TGI in the test on M19-MEL melanoma, with BT-549 breast, with LXFL 529 NSCLC, in the test on MDA-MB-435, in the test on NCI/ADR-RES ovarian and with PC-3 prostate was above 100 µM in each case. The TGI in the test with XF 498 CNS, in the test with DU-145 prostate, with DMS 273 small cell lung, in the test with HS 578T breast, in the test with RXF-631 renal and in the test with DMS 114 small cell lung was above 100 µM in each case.
Take `COc1cc2nncc(SCc3ccc(Cl)c(Cl)c3)c2cc1OC`: the TGI in the test on M19-MEL melanoma, in the test on BT-549 breast, with LXFL 529 NSCLC, in the test on MDA-MB-435, in the test with NCI/ADR-RES ovarian and in the test on PC-3 prostate was above 100 µM each time. Further, the TGI in the test with XF 498 CNS is 81.3 µM; in the test on DU-145 prostate it was above 100 µM; with DMS 273 small cell lung, above 100 µM; in the test on HS 578T breast it was above 100 µM; with RXF-631 renal, above 100 µM; with SNB-78 CNS, above 100 µM. Further, the TGI with HOP-18 NSCLC and in the test on DMS 114 small cell lung was above 100 µM throughout.
As for `CC(C)c1cccc(C(C)C)c1NC(=O)C(=O)C1SC(=S)NC1=O` (stereo not drawn), the TGI in the test with M19-MEL melanoma, in the test on LXFL 529 NSCLC, with XF 498 CNS, with DMS 273 small cell lung, in the test on RXF-631 renal and with SNB-78 CNS was above 100 µM in each case. This molecule also displayed a TGI in the test with HOP-18 NSCLC above 100 µM.
For `CCCCCCCCCCCCCCCCCc1nnc(N)o1`, the TGI in the test with M19-MEL melanoma, in the test on LXFL 529 NSCLC, in the test with XF 498 CNS, with DMS 273 small cell lung, in the test on RXF-631 renal and in the test with SNB-78 CNS was above 100 µM throughout.
For `N#CC(C(=O)CCC(=O)Nc1ccc(Cl)c(Cl)c1)c1ccc(Cl)cc1` (stereo not drawn), the TGI in the test with M19-MEL melanoma, with LXFL 529 NSCLC, in the test with DMS 273 small cell lung, with RXF-631 renal, in the test with SNB-78 CNS and in the test with HOP-18 NSCLC was above 100 µM in each case. In addition, the TGI in the test with DMS 114 small cell lung was above 100 µM.
Consider `Cc1cccc(N=C2NC(=O)C(CC(=O)Nc3ccccc3Cl)S2)c1` (stereo not drawn), for which the TGI in the test with M19-MEL melanoma, in the test on LXFL 529 NSCLC, with XF 498 CNS, in the test with DMS 273 small cell lung, with RXF-631 renal and in the test with SNB-78 CNS was above 100 µM throughout. Further, the TGI with DMS 114 small cell lung was above 100 µM.
For `O=C1NN=CN2C(=O)CCC12` (stereo not drawn), the TGI in the test with M19-MEL melanoma, in the test on LXFL 529 NSCLC, with XF 498 CNS, in the test on DMS 273 small cell lung, in the test on RXF-631 renal and in the test on SNB-78 CNS was above 100 µM in each case. In addition, the TGI with DMS 114 small cell lung was above 100 µM.
As for `O=S(=O)(N/N=C/c1ccc(Cl)cc1Cl)c1ccccc1`, the TGI in the test on M19-MEL melanoma, with LXFL 529 NSCLC, in the test with XF 498 CNS, in the test on DMS 273 small cell lung, in the test on RXF-631 renal and with SNB-78 CNS was above 100 µM throughout. In addition, the TGI is above 100 µM in the test with HOP-18 NSCLC and 89.9 µM with DMS 114 small cell lung.
Turning to `NC(=O)N/N=C(\CCC(=O)N(Cc1ccccc1)Cc1ccccc1)CC(=O)c1ccc(F)cc1`, the TGI in the test with M19-MEL melanoma, with LXFL 529 NSCLC, with RXF-631 renal, in the test on SNB-78 CNS, with HOP-18 NSCLC and with DMS 114 small cell lung was above 100 µM throughout.
As to `c1ccc2c(CN3CCC(C4CCN(Cc5cccc6ccccc56)CC4)CC3)cccc2c1`, the TGI in the test with M19-MEL melanoma was 20.7 µM; in the test on BT-549 breast, above 100 µM; in the test on LXFL 529 NSCLC, 21.8 µM; with MDA-MB-435, 11.4 µM; in the test with NCI/ADR-RES ovarian it was above 100 µM; in the test on PC-3 prostate, above 100 µM. The TGI with XF 498 CNS is 10.4 µM; in the test with DU-145 prostate it was above 100 µM; in the test with DMS 273 small cell lung, 22.9 µM; in the test with HS 578T breast it was above 100 µM; with RXF-631 renal, 35.5 µM; in the test on SNB-78 CNS it was 73.7 µM. In addition, the TGI with HOP-18 NSCLC is above 100 µM; with DMS 114 small cell lung it was 6.76 µM.
Consider `Nc1ccc(C2=Nc3ccccc3SC(c3ccccc3O)C2)cc1` (stereo not drawn), for which the TGI in the test on M19-MEL melanoma is above 100 µM; in the test with LXFL 529 NSCLC, above 100 µM; with XF 498 CNS, 78.5 µM; in the test with DMS 273 small cell lung, above 100 µM; in the test with RXF-631 renal it was above 100 µM; in the test on HOP-18 NSCLC, above 100 µM. In the test with DMS 114 small cell lung, this molecule registered a TGI of 49.4 µM.
With `COc1ccc(/C=N\O[Si](C)(C)C(C)(C)C)cc1O[Si](C)(C)C(C)(C)C`, the TGI with M19-MEL melanoma came out at 36.5 µM; in the test with LXFL 529 NSCLC, 29.9 µM; in the test with XF 498 CNS, 32.7 µM; in the test on DMS 273 small cell lung, 34.1 µM; in the test with RXF-631 renal, 37.4 µM; in the test with SNB-78 CNS, 36.1 µM. The figures for the TGI in the test with HOP-18 NSCLC and with DMS 114 small cell lung were 31.1 µM and 35.6 µM, respectively.
Consider `OC1c2ccccc2C2C(O)c3ccccc3C12` (stereo not drawn), for which the TGI in the test with M19-MEL melanoma, in the test on LXFL 529 NSCLC, in the test on DMS 273 small cell lung, with RXF-631 renal, in the test on HOP-18 NSCLC and in the test on DMS 114 small cell lung was above 100 µM throughout.
As to `NS(=O)(=O)c1ccc(NC(=O)c2cccc3c(Nc4ccc(S(N)(=O)=O)cc4)c4ccccc4nc23)cc1`, the TGI in the test on M19-MEL melanoma is above 100 µM; in the test with LXFL 529 NSCLC, 85.9 µM; with XF 498 CNS it was 74.6 µM; in the test on DMS 273 small cell lung, 5.15 µM; in the test with RXF-631 renal, 11.1 µM; in the test on SNB-78 CNS, above 100 µM. Besides, the TGI in the test with HOP-18 NSCLC and with DMS 114 small cell lung was above 100 µM each time.
Consider `[O-][n+]1c2cc(CN3CCOCC3)c(CN3CCOCC3)cc2[n+]([O-])c2c(O)cccc21`, for which the TGI in the test with M19-MEL melanoma was 8.83 µM; in the test on LXFL 529 NSCLC, 7.73 µM; in the test with XF 498 CNS, 7.42 µM; in the test on DMS 273 small cell lung, 15 µM; in the test with RXF-631 renal, above 55.9 µM; in the test on SNB-78 CNS, 21.9 µM. In the test on HOP-18 NSCLC, this molecule gave a TGI of 18.6 µM.
On to `COc1cc2c(Cc3cc(OCc4ccccc4)ccc3N)nccc2c(OC)c1OC`, for which the TGI with M19-MEL melanoma, in the test with LXFL 529 NSCLC, in the test on XF 498 CNS, in the test on DMS 273 small cell lung, in the test on RXF-631 renal and with SNB-78 CNS was above 10 µM each time. For the same molecule, the TGI with HOP-18 NSCLC and with DMS 114 small cell lung was above 10 µM throughout.
Take `O=C(NC1C=Nc2ccccc2NC1=O)c1ccccc1Cl` (stereo not drawn): the TGI in the test on M19-MEL melanoma, in the test with LXFL 529 NSCLC, in the test on XF 498 CNS, in the test with DMS 273 small cell lung, with RXF-631 renal and with SNB-78 CNS was above 100 µM throughout. The TGI in the test on HOP-18 NSCLC and in the test on DMS 114 small cell lung was above 100 µM in each case.
As to `COC(=O)C1=C(c2ccc(Cl)cc2)C(O)N=C(NN)N1` (stereo not drawn), the TGI in the test on M19-MEL melanoma, in the test on LXFL 529 NSCLC, with XF 498 CNS, with RXF-631 renal, with SNB-78 CNS and in the test with HOP-18 NSCLC was above 100 µM throughout. This molecule also returned a TGI in the test with DMS 114 small cell lung above 100 µM.
In the case of `CC1CC(=O)c2c(ccc3c2C(=O)c2cccc(O)c2C3=O)C1` (stereo not drawn), the TGI with M19-MEL melanoma was determined as 4.96 µM; in the test on LXFL 529 NSCLC, 14.1 µM; with XF 498 CNS, 25.1 µM; with DMS 273 small cell lung it was 18.5 µM; in the test with RXF-631 renal, 29.8 µM; in the test on SNB-78 CNS, 45.7 µM. Further, the TGI in the test with HOP-18 NSCLC worked out at 21.2 µM; in the test with DMS 114 small cell lung, 25.4 µM.
